Results from patent US20050153943A1, “Methods of simultaneously treating mucositis and fungal infection” (priority 2002, published 2005).
Converted amounts (≈) assume the structure as drawn. Where two headings read alike, the source gives them in different places.

How the values were obtained:
[1] = tested on: BALB/c 3T3 (CCL-163) cells; experiment: 3T3 phototoxicity assay (Neutral Red uptake, with/without UVA); conditions: 5 J/cm^2 UVA vs dark; for PIF 1 (photoirritancy factor, IC50(-UVA)/IC50(+UVA), earlier software): 1 = no measurable phototoxicity, >5 phototoxic potential; for MPE (mean photo effect): <0.1 nonphototoxin, 0.1 to <0.15 probable, >=0.15 clear phototoxin
[2] = tested on: Penicillium sp. (laboratory isolate); experiment: Fungal growth on SABHI agar containing CMT (Example 38); type: cell-based; conditions: 25 μg/ml, 30° C., growth grade
Description: (§1) The following fungi were inoculated onto potato dextrose agar (PDA) from stock cultures and incubated aerobically at 30° C.: Aspergillus [NT] 1022, Penicillium sp. (laboratory isolate), Candida albicans, ATCC 14053, and Rhizopus sp. […] The conidia were suspended in 0.9% saline and the turbidity was adjusted to match a 0.5 MacFarland standard (equivalent to approximately 1.5×10^8 cells). Candida albicans was suspended in saline and adjusted to 0.5 MacFarland in a similar manner. These suspensions were diluted 1:100 in sterile 0.9% saline. SABHI Agar (Difco) pH 7.0 was prepared in 100 ml amounts and sterilized at 121° C. for 15 min. […] SABHI Agar plates of each CMT and SAHBI agar without CMT using dimethylsulphoxide (DMSO) as a control were inoculated with 10 μl of conidia suspension of Aspergillus fumigatus, Penicillium sp. and Rhizopus sp. and 10 μl suspension of Candida albicans prepared as described above. The plates were then incubated aerobically for 24 hour and for 48 hours at 30° C. The results are set forth in Table 1 (24 hr. incubation) and Table 2 (48 hr. incubation). [table]

[3] = tested on: Rhizopus sp.; experiment: as above; type: cell-based; conditions: 25 μg/ml, 30° C., growth grade
Description: as §1

[4] = tested on: Candida albicans, ATCC 14053; experiment: as above; type: cell-based; conditions: 25 μg/ml, 30° C., growth grade
Description: as §1

[5] = tested on: Aspergillus fumigatus ATCC 1022; experiment: as above; type: cell-based; conditions: 25 μg/ml, 30° C., growth grade
Description: as §1

[6] = tested on: eleven different species of fungi; conditions: cited from earlier work
[7] = tested on: 11 different species of fungi; experiment: Summary of Example 40 over the whole panel; type: cell-based; conditions: 11 tested fungi, up to 4.00 μg/ml
Description: (§2) Each drug was dissolved in DMSO (1.0 mg/ml) as a stock solution and stored at −20° C. Just prior to use, each stock solution was thawed and diluted in DMSO to produce 6 different 100× concentrations. Potato dextrose agar was dissolved in distilled water (39 g/L) and sterilized at […] (250° F.) for 15 min. The agar solution was mixed with each drug (in a water bath at 60° C.) to make a series of final concentrations, i.e. 0.00, 0.25, 0.50, 1.00, 2.00, 4.00 μg/ml. The mixtures were then transferred to 24-well plates (1 ml/well). After the gel had formed, the fungus in PBS (spore count=1-5×10^4/ml) was inoculated by pipetting 10 μl onto each gel. The plates were incubated at 30° C. for different times, depending on the requirement of each species, e.g. 24 hours for Penicillium, Rhizopus, Tricothecium, Ulocladium, Absidia, Aspergilus, Caindida, Cunninghamella, 3 days for Scedosporium, and 5 days for Fonsecae and Phialophora.
(§3) “*” indicates better than or similar results to Amphotericin B. “NI” indicates no detectable inhibition.

[8] = tested on: Ulocladium Species; experiment: IC50 and MIC on microplate agar gels (Example 40); type: cell-based; conditions: agar gel, 0.25-4.00 μg/ml, 30° C., 24 hours, NI = no detectable inhibition
Description: as §2, §3

[9] = tested on: Scedosporium Apiospermum; experiment: IC50 and MIC on microplate agar gels (Example 40); type: cell-based; conditions: agar gel, 0.25-4.00 μg/ml, 30° C., 3 days, NI = no detectable inhibition
Description: as §2, §3

[10] = tested on: Tricothecium Species; experiment: IC50 and MIC on microplate agar gels (Example 40); type: cell-based; conditions: agar gel, 0.25-4.00 μg/ml, 30° C., 24 hours, NI = no detectable inhibition
Description: as §2, §3

[11] = tested on: Penicillium Species; experiment: IC50 and MIC on microplate agar gels (Example 40); type: cell-based; conditions: agar gel, 0.25-4.00 μg/ml, 30° C., 24 hours, NI = no detectable inhibition
Description: as §2, §3

[12] = tested on: Candida Albicans; experiment: IC50 and MIC on microplate agar gels (Example 40); type: cell-based; conditions: Candida albicans; agar gel, 0.25-4.00 μg/ml, 30° C., 24 hours; NI = no detectable inhibition; read-out: IC50
Description: as §2, §3

[13] = tested on: Absidia Species; experiment: IC50 and MIC on microplate agar gels (Example 40); type: cell-based; conditions: Absidia; agar gel, 0.25-4.00 μg/ml, 30° C., 24 hours; NI = no detectable inhibition; read-out: IC50
Description: as §2, §3

[14] = tested on: Rhizopus Species; experiment: IC50 and MIC on microplate agar gels (Example 40); type: cell-based; conditions: Rhizopus; agar gel, 0.25-4.00 μg/ml, 30° C., 24 hours; NI = no detectable inhibition; read-out: IC50
Description: as §2, §3

[15] = tested on: Phialophora Verrucosa; experiment: IC50 and MIC on microplate agar gels (Example 40); type: cell-based; conditions: Phialophora verrucosa, 120 h; agar gel, 0.25-4.00 μg/ml, 30° C., 5 days; NI = no detectable inhibition; read-out: IC50
Description: as §2, §3

[16] = tested on: Cunninghamella Species; experiment: IC50 and MIC on microplate agar gels (Example 40); type: cell-based; conditions: Cunninghamella; agar gel, 0.25-4.00 μg/ml, 30° C., 24 hours; NI = no detectable inhibition; read-out: IC50
Description: as §2, §3

[17] = tested on: Aspergilus Fumigatus; experiment: IC50 and MIC on microplate agar gels (Example 40); type: cell-based; conditions: agar gel, 0.25-4.00 μg/ml, 30° C., 24 hours; NI = no detectable inhibition; read-out: IC50
Description: as §2, §3

[18] = tested on: Fonsecae Species; experiment: IC50 and MIC on microplate agar gels (Example 40); type: cell-based; conditions: 120 h; agar gel, 0.25-4.00 μg/ml, 30° C., 5 days; NI = no detectable inhibition; read-out: IC50
Description: as §2, §3

## 2-CONHCH2-pyrrolidin-1-yl-4-dedimthylaminodoxycycline [COL 807]
[1]
  PIF 1 (photoirritancy factor, IC50(-UVA)/IC50(+UVA), earlier software): 40.4
  MPE (mean photo effect): 0.382

## CC1c2cccc(O)c2C(=O)C2=C(O)C3(O)C(=O)C(C(N)=O)=C(O)CC3C(O)C21 (centres unmarked) [COL 8, 4-dedimethylaminodoxycycline]
[2]
  Growth at 25 μg/ml compared to control at 24 hrs incubation: 3 (25% reduction in growth of colonies compared to control.)
  Growth at 25 μg/ml compared to control at 48 hours: 4 (Level of growth in the absence of anti-fungal agent (control).)
[3]
  Growth at 25 μg/ml compared to control at 24 hrs incubation: 4 (Level of growth in the absence of anti-fungal agent (control).)
  Growth at 25 μg/ml compared to control at 48 hours: 4 (Level of growth in the absence of anti-fungal agent (control).)
[4]
  Growth at 25 μg/ml compared to control at 24 hrs incubation: 4 (Level of growth in the absence of anti-fungal agent (control).)
  Growth at 25 μg/ml compared to control at 48 hours: 4 (Level of growth in the absence of anti-fungal agent (control).)
[5]
  Growth at 25 μg/ml compared to control at 48 hours: 4 (Level of growth in the absence of anti-fungal agent (control).)
[6]
  Anti-fungal activity in vitro (Lu et al.): weak or no anti-fungal activity
[7]
  Antifungal activity over the panel (summary in words): had effects on some of these fungi
[8]
  IC50: 2.0 µg/mL (≈ 4.98 µM)
  MIC: >4 µg/mL
[9]
  IC50: 2.0 µg/mL (≈ 4.98 µM)
  MIC: >4 µg/mL
[10]
  IC50: 0.7 µg/mL (≈ 1.74 µM)
  MIC: 2.0 µg/mL (≈ 4.98 µM)
[11]
  IC50: 2.0 µg/mL (≈ 4.98 µM)
  MIC: >4 µg/mL

## C[C@H]1c2cccc(O)c2C(=O)C2=C(O)[C@]3(O)C(=O)C(C(N)=O)=C(O)[C@@H](N(C)C)[C@@H]3[C@@H](O)[C@@H]21 [Doxycycline, 6α-deoxy-5-hydroxytetracycline, reference compound]
[12]
  IC50: > 4 µg/mL
[13]
  IC50: > 4 µg/mL
[14]
  IC50: > 4 µg/mL
[15]
  IC50: > 4 µg/mL
[8]; read-out: IC50
  IC50: > 4 µg/mL
[9]; Scedosporium apiospermum, 72 h, read-out: IC50
  IC50: > 4 µg/mL
[16]
  IC50: > 4 µg/mL
[17]
  IC50: > 4 µg/mL
[18]
  IC50: > 4 µg/mL
[10]; read-out: IC50
  IC50: 4 µg/mL (≈ 9 µM)
[10]; read-out: MIC
  MIC: > 4 µg/mL
[11]; Penicillium, read-out: IC50
  IC50: > 4 µg/mL

## CN(C)c1cc([N+]#N)c(O)c2c1CC1CC3CC(O)=C(C(N)=O)C(=O)C3(O)C(O)=C1C2=O.O=S(=O)([O-])O (centres unmarked) [Example 4, 4-Dedimethylamino-7-dimethylamino-6-demethyl-6-deoxy-9-diazoniumtetracycline sulfate]
[2]
  Growth at 25 μg/ml compared to control at 24 hrs incubation: 3 (25% reduction in growth of colonies compared to control.)
  Growth at 25 μg/ml compared to control at 48 hours: 0 (complete inhibition of growth.)
[3]
  Growth at 25 μg/ml compared to control at 24 hrs incubation: 4 (Level of growth in the absence of anti-fungal agent (control).)
  Growth at 25 μg/ml compared to control at 48 hours: 4 (Level of growth in the absence of anti-fungal agent (control).)
[4]
  Growth at 25 μg/ml compared to control at 24 hrs incubation: 1 (75% reduction in growth in colonies compared to control.)
  Growth at 25 μg/ml compared to control at 48 hours: 4 (Level of growth in the absence of anti-fungal agent (control).)
[5]; 24 hrs
  Growth at 25 μg/ml compared to control at 24 hrs incubation: 0 (complete inhibition of growth.)
[5]
  Growth at 25 μg/ml compared to control at 48 hours: 1 (75% reduction in growth in colonies compared to control.)

## CN(C)[C@@H]1C(O)=C(C(N)=O)C(=O)[C@@]2(O)C(O)=C3C(=O)c4c(O)cccc4[C@@](C)(O)[C@H]3C[C@@H]12 [Tetracycline, reference compound]
[1]
  PIF 1 (photoirritancy factor, IC50(-UVA)/IC50(+UVA), earlier software): 5.38
  MPE (mean photo effect): 0.340
